The text below walks through data of publication PMC8509428, “The Phenoxyalkyltriazine Antagonists for 5-HT6 Receptor with Promising Procognitive and Pharmacokinetic Properties In Vivo in Search for a Novel Therapeutic Approach to Dementia Diseases” (International Journal of Molecular Sciences, 2021).

The structures appear in SMILES notation. Values joined by “and” are separate entries in the source; they are usually repeats but may differ in a detail not shown here. Identical values can stand only once. Counter-ions that a name gives are not always drawn.

Experiment [1] relates to MK-801-induced memory deficits in rats. Conditions: MK-801 0.1 mg/kg i.p. + vehicle; cited from earlier work.
Experiment [2] shares this test system. In words: Novel object recognition (NOR) test, MK-801-induced memory impairment. It counts as in vivo, rat. Conditions: MK-801 0.1 mg/kg i.p. + vehicle; 0.1 mg/kg. On the procedure: Five days before the experiment, the rats were transferred to the laboratory, labelled and, thereafter, left to acclimate to the new environment. The animals were handling every five days before experiments to minimize the stress reaction. The protocol was adapted from the original work. The test session comprising of two trials separated by an inter-trial interval (ITI) of 1 h was carried out after 2 days of the training session. During the first trial (familiarization, T1) two identical objects (A1 and A2) were presented in the opposite corners of the open field, approximately 10 cm from the walls. During the second trial (recognition, T2) one of the A objects was replaced by a novel object B, so that the animals were presented with the A = familiar and B = novel objects. Both trials lasted for 3 min and the animals were returned to their home cages after T1.
The objects used were the metal Coca-Cola cans and the glass jars filled with sand. […] The sequence of presentations and the location of the objects were randomly assigned to each rat. After each measurement, the floor was cleaned and dried.
The animals explored the objects by looking, licking, sniffing or touching the object but not when leaning against, standing or sitting on the object. Any rat exploring the two objects for less than 5 s within 3 min of T1 or T2 was eliminated from the study. The exploration time of the objects was measured by a blind experimenter. Based on the exploration time (E) of two objects during T2, the discrimination index (DI) was calculated according to the formula: DI = (EB − EA)/(EA + […]). Using this metric, scores approaching zero reflects no preference while positive values reflect a preference for the novel object and negative numbers reflect a preference for the familiar.
MK-801, used to attenuate learning, was administered at the dose of 0.1 mg/kg (i.p.) 30 min before the familiarization phase (T1), while investigated compounds were given 60 min before T1 session. In such scheme of experiment we could observe the impact of investigated compounds on the one type of rats’ memory—episodic memory and one phase of memory process—[…].
The total exploration time in T2 was used to express the influence of the treatment on the exploratory activity of the animals.

Experiment [3] has as its system rats. Conditions: i.p.; ref 10 (AG-1), 11 (AG-2), 12 (AN-1), 13 (AN-2); cited from earlier work.
In experiment [4] the target is 5-HT6R. Particulars: Figure 1; ref 10 (AG-1), 11 (AG-2), 12 (AN-1), 13 (AN-2); cited from earlier work.
The target of experiment [5] is human serotonin 5-HT6 receptor (Homo sapiens, UniProt P50406). In words: Functional assay for 5-HT6 receptor (cAMP, 1321N1 cells).
Sequence of human serotonin 5-HT6 receptor (P50406 whole entry): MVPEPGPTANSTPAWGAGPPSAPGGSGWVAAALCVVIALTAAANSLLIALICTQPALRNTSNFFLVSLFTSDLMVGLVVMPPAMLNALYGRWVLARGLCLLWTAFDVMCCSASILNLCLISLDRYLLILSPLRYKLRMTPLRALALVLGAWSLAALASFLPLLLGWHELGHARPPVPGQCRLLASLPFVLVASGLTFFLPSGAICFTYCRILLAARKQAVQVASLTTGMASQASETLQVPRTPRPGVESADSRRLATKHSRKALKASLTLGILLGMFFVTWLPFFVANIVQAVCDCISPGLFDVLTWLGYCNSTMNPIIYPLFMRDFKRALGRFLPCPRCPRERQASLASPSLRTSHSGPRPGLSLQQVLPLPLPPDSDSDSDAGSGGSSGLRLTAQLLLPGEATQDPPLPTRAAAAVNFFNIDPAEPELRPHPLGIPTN

As to `C[C@]12N[C@H](Cc3ccccc31)c1ccccc12` [MK-801, MK-801 maleate, reference compound], the “Discrimination Index” value in experiment [1] is given as −0.07 ± 0.01. The “Total Exploratory Time in T2 Session” value in experiment [2] is 42.00 ± 3.13 s and 47.07 ± 3.89 s.

Regarding `COc1ccc2c(c1)c(C1=CCNCC1)cn2S(=O)(=O)c1cncc2ccccc12` [AN-1], the “dose with procognitive effect in the NOR test” value (shortened to “dose with procognitive effect”) in experiment [3] is reported as 1 mg/kg. For the same molecule, the Ki (in general, the dissociation constant of the complex between target and ligand, obtained from inhibition or displacement) in experiment [4] was 3 nM.

`CN(C)CCc1c[nH]c2ccc(NS(=O)(=O)c3c(Cl)nc4sccn34)cc12` [AG-1]: the “dose with procognitive effect” value in experiment [3] is recorded as 2.5 mg/kg.

As to `NCCc1cn(S(=O)(=O)c2c(Cl)nc3sccn23)c2ccccc12` [AG-2], in experiment [3], the “dose with procognitive effect” value is 3 mg/kg.

Turning to `CN(C)CCn1cnc2ccc(NS(=O)(=O)c3ccc4c(Cl)cccc4c3)cc21` [AN-2], the “dose with procognitive effect” value in experiment [3] is on record as 1 mg/kg. Also, in experiment [4], the Ki was 9 nM.

Consider `COc1ccc(NS(=O)(=O)c2ccc(I)cc2)cc1N1CCN(C)CC1` [SB258585], for which the “5-HT6 Antagonist Mode Emax” value in experiment [5] (Table S1, % of reference antagonist (SB258585 10^-5 M)) was determined as 100%. In addition, the “5-HT6R Agonist Mode Emax” value in experiment [5] (± SEM, % of maximal agonist response (Serotonin 10^−5 M)) came out at 2.00 ± 0.50%.
